{
  "source": "patent US20240279220A1",
  "about": "“INDOLE COMPOUNDS AND METHODS OF USE” (Genzyme Corporation, priority 2021, published 2024)",
  "data": [
    {"test_system": "NBD1/3D", "experiment": "Aggregation analysis using differential static light scattering (DSLS), NBD1 thermal stability", "assay_type": "binding, Human", "conditions": "ΔTagg versus DMSO control; compound at 100 μM", "procedure,_shortened": "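Thermal stabilisation reported as ΔTagg, i.e. aggregation temperature relative to averaged DMSO wells. Tagg came from the inflection of differential static light scattering imaged 25–70 °C while NBD1 (0.2 mg/ml, Tris pH 7.6 buffer containing ATP, MgCl2, DTT, glycerol) was ramped 1 °C/min.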", "values": [
      {"smiles": "CC(C#N)(c1cccc(CCC(=O)O)c1)c1cnc(-c2cc(Oc3nc4cc[nH]c4cc3F)ccc2F)[nH]1", "note": "(centres unmarked) [Example 61, 3-(3-(1-cyano-1-(2-(2-fluoro-5-((6-fluoro-1H-pyrrolo[3,2-b]pyridin-5-yl)oxy)phenyl)-1H-imidazol-5-yl)ethyl)phenyl)propanoic acid]", "DSLS NBD1/3D Human Stability delta-T (° C.) @ 100 (μM)": "B (B: 5-10° C.)"},
      {"smiles": "CC(C#N)(c1cccc(CCC(=O)O)c1)c1cnc(-c2cc(Oc3c(F)cc4[nH]cnc4c3F)ccc2F)[nH]1", "note": "(centres unmarked) [Example 62, 3-(3-(1-cyano-1-(2-(5-((4,6-difluoro-1H-benzo[d]imidazol-5-yl)oxy)-2-fluorophenyl)-1H-imidazol-5-yl)ethyl)phenyl)propanoic acid]", "DSLS NBD1/3D Human Stability delta-T (° C.) @ 100 (μM)": "B (B: 5-10° C.)"},
      {"smiles": "[2H]C([2H])([2H])C(C#N)(c1cc(F)cc(CCC(=O)O)c1)c1cnc(-c2cc(Oc3c(F)c(F)c4[nH]ccc4c3C)ccc2F)[nH]1", "note": "(centres unmarked) [Example 63, 3-(3-(1-cyano-1-(2-(5-((6,7-difluoro-4-methyl-1H-indol-5-yl)oxy)-2-fluorophenyl)-1H-imidazol-5-yl)ethyl-2,2,2-d3)-5-fluorophenyl)propanoic acid]", "DSLS NBD1/3D Human Stability delta-T (° C.) @ 100 (μM)": "B (B: 5-10° C.)"},
      {"smiles": "CC(CO)(c1cccc(CCC(=O)O)c1)c1cnc(-c2cc(Oc3c(F)cc4[nH]ccc4c3S(C)(=O)=O)ccc2F)[nH]1", "note": "(centres unmarked) [Example 68, 3-(3-(2-(2-(2-Fluoro-5-((6-fluoro-4-(methylsulfonyl)-1H-indol-5-yl)oxy)phenyl)-1H-imidazol-5-yl)-1-hydroxypropan-2-yl)phenyl)propanoic acid]", "DSLS NBD1/3D Human Stability delta-T (° C.) @ 100 (μM)": "A (A: T ≥ 10° C.)"},
      {"smiles": "CC(CO)(c1cccc(CCC(=O)O)c1)c1c[nH]c(-c2cc(Oc3c(F)c(F)c4[nH]ccc4c3S(C)(=O)=O)ccc2F)n1", "note": "(centres unmarked) [Example 69, 3-(3-(2-(2-(5-((6,7-difluoro-4-(methylsulfonyl)-1H-indol-5-yl)oxy)-2-fluorophenyl)-1H-imidazol-5-yl)-1-hydroxypropan-2-yl)phenyl)propanoic acid]", "DSLS NBD1/3D Human Stability delta-T (° C.) @ 100 (μM)": "A (A: T ≥ 10° C.)"},
      {"smiles": "CO[C@]1(C)C[C@@](c2cccc(CCC(=O)O)c2)(c2cnc(-c3cc(Oc4c(F)c(F)c5[nH]ccc5c4S(C)(=O)=O)ccc3F)[nH]2)C1", "note": "[Example 70, rac-3-(3-((1r,3r)-1-(2-(5-((6,7-Difluoro-4-(methylsulfonyl)-1H-indol-5-yl)oxy)-2-fluorophenyl)-1H-imidazol-5-yl)-3-methoxy-3-methylcyclobutyl)phenyl)propanoic acid]", "DSLS NBD1/3D Human Stability delta-T (° C.) @ 100 (μM)": "A (A: T ≥ 10° C.)"},
      {"smiles": "CO[C@]1(C)C[C@@](c2cccc(CCC(=O)O)c2)(c2c[nH]c(-c3cc(Oc4c(F)cc5[nH]ccc5c4S(C)(=O)=O)ccc3F)n2)C1", "note": "[Example 71, 3-(3-((1r,3r)-1-(2-(2-fluoro-5-((6-fluoro-4-(methylsulfonyl)-1H-indol-5-yl)oxy)phenyl)-1H-imidazol-4-yl)-3-methoxy-3-methylcyclobutyl)phenyl)propanoic acid]", "DSLS NBD1/3D Human Stability delta-T (° C.) @ 100 (μM)": "A (A: T ≥ 10° C.)"},
      {"smiles": "CO[C@]1(C)C[C@@](c2cc(F)cc(CCC(=O)O)c2)(c2c[nH]c(-c3cc(Oc4c(F)cc5[nH]ccc5c4S(C)(=O)=O)ccc3F)n2)C1", "note": "[Example 72, 3-(3-Fluoro-5-((1r,3r)-1-(2-(2-fluoro-5-((6-fluoro-4-(methylsulfonyl)-1H-indol-5-yl)oxy)phenyl)-1H-imidazol-5-yl)-3-methoxy-3-methylcyclobutyl)phenyl)propanoic acid]", "DSLS NBD1/3D Human Stability delta-T (° C.) @ 100 (μM)": "A (A: T ≥ 10° C.)"},
      {"smiles": "CO[C@]1(C)C[C@](c2cc(F)cc(CCC(=O)O)c2)(c2cnc(-c3cc(Oc4c(F)cc5[nH]ccc5c4S(C)(=O)=O)ccc3F)[nH]2)C1", "note": "[Example 73, 3-(3-fluoro-5-((1s,3s)-1-(2-(2-fluoro-5-((6-fluoro-4-(methylsulfonyl)-1H-indol-5-yl)oxy)phenyl)-1H-imidazol-5-yl)-3-methoxy-3-methylcyclobutyl)-phenyl)propanoic acid]", "DSLS NBD1/3D Human Stability delta-T (° C.) @ 100 (μM)": "A (A: T ≥ 10° C.)"},
      {"smiles": "CC(CC#N)(c1cccc(CCC(=O)O)c1)c1cnc(-c2cc(Oc3c(F)cc4[nH]ccc4c3S(C)(=O)=O)ccc2F)[nH]1", "note": "(centres unmarked) [Example 76, 3-(3-(1-Cyano-2-(2-(2-fluoro-5-((6-fluoro-4-(methylsulfonyl)-1H-indol-5-yl)oxy)phenyl)-1H-imidazol-5-yl)propan-2-yl)phenyl)propanoic acid]", "DSLS NBD1/3D Human Stability delta-T (° C.) @ 100 (μM)": "A (A: T ≥ 10° C.)"},
      {"smiles": "CC(CC#N)(c1cccc(CCC(=O)O)c1)c1cnc(-c2cc(Oc3c(F)cc4[nH]ccc4c3F)ccc2F)[nH]1", "note": "(centres unmarked) [Example 77, 3-(3-(1-cyano-2-(2-(5-((4,6-difluoro-1H-indol-5-yl)oxy)-2-fluorophenyl)-1H-imidazol-5-yl)propan-2-yl)phenyl)propanoic acid]", "DSLS NBD1/3D Human Stability delta-T (° C.) @ 100 (μM)": "B (B: 5-10° C.)"},
      {"smiles": "CS(=O)(=O)c1c(Oc2ccc(F)c(-c3ncc(C4(c5cccc(CCC(=O)O)c5)CC(F)(F)C4)[nH]3)c2)c(F)cc2[nH]ccc12", "note": "[Example 78, 3-(3-(3,3-Difluoro-1-(2-(2-fluoro-5-((6-fluoro-4-(methylsulfonyl)-1H-indol-5-yl)oxy)phenyl)-1H-imidazol-5-yl)cyclobutyl)phenyl)propanoic acid]", "DSLS NBD1/3D Human Stability delta-T (° C.) @ 100 (μM)": "A (A: T ≥ 10° C.)"},
      {"smiles": "CS(=O)(=O)c1c(Oc2ccc(F)c(-c3nc(C4(c5cccc(CCC(=O)O)c5)CC(F)(F)C4)cs3)c2)c(F)cc2[nH]ccc12", "note": "[Example 79, 3-(3-(3,3-Difluoro-1-(2-(2-fluoro-5-((6-fluoro-4-(methylsulfonyl)-1H-indol-5-yl)oxy)phenyl)thiazol-4-yl)cyclobutyl)phenyl)propanoic acid]", "DSLS NBD1/3D Human Stability delta-T (° C.) @ 100 (μM)": "B (B: 5-10° C.)"},
      {"smiles": "CS(=O)(=O)c1c(Oc2ccc(F)c(-c3nc(C4(c5cccc(CCC(=O)O)c5)CC4)co3)c2)c(F)cc2[nH]ccc12", "note": "[Example 81, 3-(3-(1-(2-(2-Fluoro-5-((6-fluoro-4-(methylsulfonyl)-1H-indol-5-yl)oxy)phenyl)oxazol-4-yl)cyclopropyl)phenyl)propanoic acid]", "DSLS NBD1/3D Human Stability delta-T (° C.) @ 100 (μM)": "B (B: 5-10° C.)"},
      {"smiles": "O=C(O)CCc1cccc(C2(c3cnc(-c4cc(Oc5c(F)cc6[nH]ccc6c5SC(F)(F)F)ccc4F)[nH]3)CCOCC2)c1", "note": "[Example 82, 3-(3-(4-(2-(2-Fluoro-5-((6-fluoro-4-((trifluoromethyl)thio)-1H-indol-5-yl)oxy)phenyl)-1H-imidazol-5-yl)tetrahydro-2H-pyran-4-yl)phenyl)propanoic acid]", "DSLS NBD1/3D Human Stability delta-T (° C.) @ 100 (μM)": "B (B: 5-10° C.)"},
      {"smiles": "O=C(O)CCc1cccc(C(O)c2cnc(-c3cccc(Oc4c(F)cc5[nH]ccc5c4-c4nccs4)c3)[nH]2)c1", "note": "(centres unmarked) [Example 87, 3-(3-((2-(3-((6-Fluoro-4-(thiazol-2-yl)-1H-indol-5-yl)oxy)phenyl)-1H-imidazol-5-yl)(hydroxy)methyl)phenyl)propanoic acid]", "DSLS NBD1/3D Human Stability delta-T (° C.) @ 100 (μM)": "B (B: 5-10° C.)"},
      {"smiles": "CC(O)(c1cccc(CCC(=O)O)c1)c1csc(-c2cc(Oc3c(F)cc4[nH]ccc4c3S(C)(=O)=O)ccc2F)n1", "note": "(centres unmarked) [Example 88, 3-(3-(1-(2-(2-Fluoro-5-((6-fluoro-4-(methylsulfonyl)-1H-indol-5-yl)oxy)phenyl)thiazol-4-yl)-1-hydroxyethyl)phenyl)propanoic acid]", "DSLS NBD1/3D Human Stability delta-T (° C.) @ 100 (μM)": "B (B: 5-10° C.)"}
    ]}
  ]
}
